Columns and labels:
HCT-116 cell line = assay: MTT anti-proliferative assay; assay type: cell-based; settings: Homo sapiens, 48 h of incubation, mean ± SD of three experiments
Experimental: (§1) A549 (non-small cell lung cancer cell line) and HCT-116 (human colon cancer cell line), were obtained from American Type Culture Collection (Manassas, VA, USA). The cells were maintained in Dulbecco’s Modified Eagle’s Medium (DMEM) (Sigma-Aldrich, St. Louis, MO), and supplemented with 10% heat-inactivated FBS (Hyclone), 10 μg/mL of insulin (Manufacturer, Sigma, St. Louis, MO, USA), and 1% penicillin-streptomycin. MTT assay[29] was adopted to assess the in vitro antitumor activity of the newly synthesized pyridines 5a–l according to the reported procedures, using Doxorubicin as a standard treatment. Experimental conditions were tested using three replicates (three wells of the 96-well plate per experimental condition) and all experiments were carried out in triplicates. IC50 values were calculated by the use of the equation for Boltzman sigmoidal concentration–response curve using the nonlinear regression fitting models by Graph Pad, Prism version 5 (GraphPad Software Inc., La Jolla, CA).
(§2) All newly synthesized pyridines 5a–l were examined for their anti-proliferative activity towards two cancer cell lines: non-small cell lung cancer A549 cell line and colon cancer HCT-116 cell line. The MTT colorimetric assay was adopted to assess the anti-proliferative activity as described by Mosmann[29]. Doxorubicin was used as a control in this assay.

A549 cell line = assay: MTT anti-proliferative assay; assay type: cell-based; settings: Homo sapiens, 48 h of incubation, mean ± SD of three experiments
Experimental: as §1, §2

HL-60(TB) = assay: NCI one-dose SRB growth inhibition; assay type: cell-based; settings: Homo sapiens, Leukemia, 48 h, read-out: GI% HL-60(TB)
Experimental: (§3) The antitumor assay was performed according to the protocol of the Drug Evaluation Branch, NCI, Bethesda[24–26]. A 48 h drug exposure protocol was adopted, and sulforhodamine B (SRB) assay[27] was utilized to assess the cell growth and viability, as reported earlier[17]^,[28].
(§4) The structures of all the newly synthesized pyridines 5a–l were submitted to the National Cancer Institute (NCI) Developmental Therapeutic Program (www.dtp.nci.nih.gov). […] Nine different types of cancer were tested in this assay: colon, ovarian, prostate, leukemia, melanoma, CNS, renal, breast and lung cancers. A 48 h drug exposure protocol was adopted, and sulforhodamine B (SRB) assay[27] was utilized to assess the cell growth and viability.

LOX IMVI = assay: NCI one-dose SRB growth inhibition; assay type: cell-based; settings: Homo sapiens, Melanoma, 48 h, read-out: GI% LOX IMVI
Experimental: as §3, §4

MDA-MB-435 = assay: NCI one-dose SRB growth inhibition; assay type: cell-based; settings: Homo sapiens, Melanoma, 48 h, read-out: GI% MDA-MB-435
Experimental: as §3, §4

RPMI-8226 = assay: NCI one-dose SRB growth inhibition; assay type: cell-based; settings: Homo sapiens, RPMI-8226, 48 h, Leukemia, read-out: GI% RPMI-8226
Experimental: as §3, §4

SF-295 = assay: NCI one-dose SRB growth inhibition; assay type: cell-based; settings: Homo sapiens, CNS Cancer, 48 h, read-out: GI% SF-295
Experimental: as §3, §4

EKVX = assay: NCI one-dose SRB growth inhibition; assay type: cell-based; settings: Homo sapiens, Non-Small Cell Lung Cancer, 48 h, read-out: GI% EKVX
Experimental: as §3, §4

MCF7 = assay: NCI one-dose SRB growth inhibition; assay type: cell-based; settings: Homo sapiens, Breast Cancer, 48 h, read-out: GI% MCF7
Experimental: as §3, §4

NCI-H322M = assay: NCI one-dose SRB growth inhibition; assay type: cell-based; settings: Homo sapiens, Non-Small Cell Lung Cancer, 48 h, read-out: GI% NCI-H322M
Experimental: as §3, §4

SW-620 = assay: NCI one-dose SRB growth inhibition; assay type: cell-based; settings: Homo sapiens, Colon Cancer, 48 h, read-out: GI% SW-620
Experimental: as §3, §4

M14 = assay: NCI one-dose SRB growth inhibition; assay type: cell-based; settings: Homo sapiens, M14, 48 h, Melanoma, read-out: GI% M14
Experimental: as §3, §4

NCI-H522 = assay: NCI one-dose SRB growth inhibition; assay type: cell-based; settings: Homo sapiens, NCI-H522, 48 h, Non-Small Cell Lung Cancer, read-out: GI% NCI-H522
Experimental: as §3, §4

A549/ATCC = assay: NCI one-dose SRB growth inhibition; assay type: cell-based; settings: Homo sapiens, A549, 48 h, Non-Small Cell Lung Cancer, read-out: GI% A549/ATCC
Experimental: as §3, §4

OVCAR-8 = assay: NCI one-dose SRB growth inhibition; assay type: cell-based; settings: Homo sapiens, Ovarian Cancer, 48 h, read-out: GI% OVCAR-8
Experimental: as §3, §4

KM12 = assay: NCI one-dose SRB growth inhibition; assay type: cell-based; settings: Homo sapiens, Colon Cancer, 48 h, read-out: GI% KM12
Experimental: as §3, §4

CCRF-CEM = assay: NCI one-dose SRB growth inhibition; assay type: cell-based; settings: Homo sapiens, Leukemia, 48 h, read-out: GI% CCRF-CEM
Experimental: as §3, §4

SK-MEL-28 = assay: NCI one-dose SRB growth inhibition; assay type: cell-based; settings: Homo sapiens, Melanoma, 48 h, read-out: GI% SK-MEL-28
Experimental: as §3, §4

OVCAR-4 = assay: NCI one-dose SRB growth inhibition; assay type: cell-based; settings: Homo sapiens, Ovarian Cancer, 48 h, read-out: GI% OVCAR-4
Experimental: as §3, §4

COLO 205 = assay: NCI one-dose SRB growth inhibition; assay type: cell-based; settings: Homo sapiens, Colon Cancer, 48 h, read-out: GI% COLO 205
Experimental: as §3, §4

MDA-MB-468 = assay: NCI one-dose SRB growth inhibition; assay type: cell-based; settings: Homo sapiens, Breast Cancer, 48 h, read-out: GI% MDA-MB-468
Experimental: as §3, §4

NCI-H226 = assay: NCI one-dose SRB growth inhibition; assay type: cell-based; settings: Homo sapiens, Non-Small Cell Lung Cancer, 48 h, read-out: GI% NCI-H226
Experimental: as §3, §4

SNB-19 = assay: NCI one-dose SRB growth inhibition; assay type: cell-based; settings: Homo sapiens, CNS Cancer, 48 h, read-out: GI% SNB-19
Experimental: as §3, §4

SK-MEL-2 = assay: NCI one-dose SRB growth inhibition; assay type: cell-based; settings: Homo sapiens, Melanoma, 48 h, read-out: GI% SK-MEL-2
Experimental: as §3, §4

HCT-15 = assay: NCI one-dose SRB growth inhibition; assay type: cell-based; settings: Homo sapiens, HCT-15, 48 h, Colon Cancer, read-out: GI% HCT-15
Experimental: as §3, §4

WI-38 cell line = assay: MTT cytotoxicity towards non-tumorigenic cells; assay type: cell-based, human; settings: for IC50: WI-38, MTT, non-tumorigenic human lung fibroblast, mean ± SD of three experiments; for S. I. WI-38/A549: selectivity index, IC50 WI-38 / IC50 A549
Experimental: The cytotoxic activity of all synthesized pyridines 5a–l were assessed against non-tumorigenic human lung fibroblast WI-38 cell line to investigate their safety, using the MTT colorimetric assay.

| Structure (SMILES) | IC50 (A549 cell line) [µM] | inhibition at 10 µM (HL-60(TB)) [%] | inhibition at 10 µM (LOX IMVI) [%] | inhibition at 10 µM (MDA-MB-435) [%] | inhibition at 10 µM (RPMI-8226) [%] | inhibition at 10 µM (SF-295) [%] | inhibition at 10 µM (EKVX) [%] | inhibition at 10 µM (MCF7) [%] | inhibition at 10 µM (NCI-H322M) [%] | inhibition at 10 µM (SW-620) [%] | inhibition at 10 µM (M14) [%] | inhibition at 10 µM (NCI-H522) [%] | inhibition at 10 µM (A549/ATCC) [%] | inhibition at 10 µM (OVCAR-8) [%] | inhibition at 10 µM (KM12) [%] | inhibition at 10 µM (CCRF-CEM) [%] | inhibition at 10 µM (SK-MEL-28) [%] | inhibition at 10 µM (OVCAR-4) [%] | inhibition at 10 µM (COLO 205) [%] | inhibition at 10 µM (MDA-MB-468) [%] | further results |
| --- | --- | --- | --- | --- | --- | --- | --- | --- | --- | --- | --- | --- | --- | --- | --- | --- | --- | --- | --- | --- | --- |
| Cc1nc(-c2ccc(F)cc2)ccc1NC(=O)Nc1ccc2c(c1)OCO2 [Compound 5d, 1-(Benzo[d][1, 3]dioxol-5-yl)-3-(6-(4-fluorophenyl)-2-methylpyridin-3-yl)urea] | 12.5 ± 0.85 | < 10 | 34 | < 10 | < 10 | < 10 | < 10 | < 10 | < 10 | < 10 | 37 | 45 | 13 | < 10 | 11 | < 10 | < 10 | < 10 | < 10 | < 10 | IC50 (HCT-116 cell line): 10.4 ± 0.84 µM; inhibition at 10 µM (NCI-H226): < 10%; inhibition at 10 µM (SNB-19): < 10%; inhibition at 10 µM (SK-MEL-2): < 10%; inhibition at 10 µM (HCT-15): < 10%; melting point: 254 to 256 °C; IC50 (WI-38 cell line): 107 ± 7.03 µM; S. I. WI-38/A549 (WI-38 cell line): 8.6 |
| Cc1nc(-c2ccc(Cl)cc2)ccc1NC(=O)Nc1ccc2c(c1)OCO2 [Compound 5g, 1-(Benzo[d][1,3]dioxol-5-yl)-3-(6-(4-chlorophenyl)-2-methylpyridin-3-yl)urea] | 6.72 ± 0.38 | 24 | 34 | < 10 | < 10 | < 10 | < 10 | < 10 | < 10 | < 10 | 29 | 38 | 32 | < 10 | < 10 | < 10 | < 10 | < 10 | < 10 | < 10 | inhibition at 10 µM (NCI-H226): < 10%; inhibition at 10 µM (SNB-19): < 10%; inhibition at 10 µM (SK-MEL-2): < 10%; inhibition at 10 µM (HCT-15): < 10%; melting point: 271 to 273 °C; IC50 (WI-38 cell line): 63.5 ± 5.08 µM; S. I. WI-38/A549 (WI-38 cell line): 9.4 |
| Cc1nc(-c2cccs2)ccc1NC(=O)Nc1ccc(Cl)cc1 [Compound 5i, 1-(4-Chlorophenyl)-3-(2-methyl-6-(thiophen-2-yl)pyridin-3-yl)urea] | 8.73 ± 0.71 | 20 | < 10 | < 10 | < 10 | < 10 | < 10 | 12 | < 10 | < 10 | < 10 | 28 | 29 | < 10 | < 10 | < 10 | < 10 | < 10 | < 10 | 17 | inhibition at 10 µM (NCI-H226): < 10%; inhibition at 10 µM (SNB-19): < 10%; inhibition at 10 µM (SK-MEL-2): < 10%; inhibition at 10 µM (HCT-15): < 10%; melting point: 234 to 236 °C; IC50 (WI-38 cell line): 129 ± 12 µM; S. I. WI-38/A549 (WI-38 cell line): 14.8 |
| CCOC(=O)c1ccc(NC(=O)Nc2ccc(-c3ccc(F)cc3)nc2C)cc1 [Compound 5c, Ethyl 4-(3-(6-(4-fluorophenyl)-2-methylpyridin-3-yl)ureido)benzoate] | 9.61 ± 1.03 | 13 | 24 | < 10 | 13 | < 10 | < 10 | 20 | < 10 | < 10 | 38 | 24 | 25 | < 10 | < 10 | < 10 | < 10 | < 10 | < 10 | < 10 | inhibition at 10 µM (NCI-H226): 12%; inhibition at 10 µM (SNB-19): < 10%; inhibition at 10 µM (SK-MEL-2): < 10%; inhibition at 10 µM (HCT-15): < 10%; melting point: 209 to 211 °C; IC50 (WI-38 cell line): 123 ± 10.2 µM; S. I. WI-38/A549 (WI-38 cell line): 12.8 |
